Laboratory results published in ChEMBL document CHEMBL1221220, “Transport and signaling via the amino acid binding site of the yeast Gap1 amino acid transceptor” (Nat Chem Biol, 2009).
Residue numbers refer to the chain shown, from its start. Active and inactive are the calls of the source. The rule behind the calls is not given here.

How the values were obtained:
Saccharomyces cerevisiae = experiment: Induction of yeast Gap1 L404 mutant-mediated trehalose activation at 10 mM
[1] = test system: General amino-acid permease GAP1 (Saccharomyces cerevisiae), P19145 [I394C]; experiment: Inhibition of yeast Gap1 I394C mutant-mediated trehalose activation at 10 mM
Chain of General amino-acid permease GAP1 (Saccharomyces cerevisiae), P19145 [I394C] (P19145 whole entry I394C): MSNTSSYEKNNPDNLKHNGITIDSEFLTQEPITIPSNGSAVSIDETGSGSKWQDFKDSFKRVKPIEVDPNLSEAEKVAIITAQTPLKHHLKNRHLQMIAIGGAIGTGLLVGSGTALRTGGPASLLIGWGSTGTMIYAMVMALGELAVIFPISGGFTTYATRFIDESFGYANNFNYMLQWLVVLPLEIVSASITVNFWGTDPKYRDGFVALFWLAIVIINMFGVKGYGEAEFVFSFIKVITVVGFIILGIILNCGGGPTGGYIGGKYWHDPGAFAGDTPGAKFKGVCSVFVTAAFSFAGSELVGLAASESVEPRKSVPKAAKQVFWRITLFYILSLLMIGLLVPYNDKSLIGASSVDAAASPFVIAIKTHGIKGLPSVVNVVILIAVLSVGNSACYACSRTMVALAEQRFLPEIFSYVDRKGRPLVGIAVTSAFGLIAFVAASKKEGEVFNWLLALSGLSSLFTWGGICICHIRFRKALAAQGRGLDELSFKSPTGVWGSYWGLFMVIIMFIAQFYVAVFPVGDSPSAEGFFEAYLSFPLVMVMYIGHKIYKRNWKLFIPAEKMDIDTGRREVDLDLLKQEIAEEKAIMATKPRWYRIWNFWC

[2] = test system: T1, General amino-acid permease GAP1 (Saccharomyces cerevisiae), P19145 [I382C]; experiment: Induction of yeast Gap1 I382C mutant-mediated trehalose activation at 10 mM
T1 sequence (whole entry): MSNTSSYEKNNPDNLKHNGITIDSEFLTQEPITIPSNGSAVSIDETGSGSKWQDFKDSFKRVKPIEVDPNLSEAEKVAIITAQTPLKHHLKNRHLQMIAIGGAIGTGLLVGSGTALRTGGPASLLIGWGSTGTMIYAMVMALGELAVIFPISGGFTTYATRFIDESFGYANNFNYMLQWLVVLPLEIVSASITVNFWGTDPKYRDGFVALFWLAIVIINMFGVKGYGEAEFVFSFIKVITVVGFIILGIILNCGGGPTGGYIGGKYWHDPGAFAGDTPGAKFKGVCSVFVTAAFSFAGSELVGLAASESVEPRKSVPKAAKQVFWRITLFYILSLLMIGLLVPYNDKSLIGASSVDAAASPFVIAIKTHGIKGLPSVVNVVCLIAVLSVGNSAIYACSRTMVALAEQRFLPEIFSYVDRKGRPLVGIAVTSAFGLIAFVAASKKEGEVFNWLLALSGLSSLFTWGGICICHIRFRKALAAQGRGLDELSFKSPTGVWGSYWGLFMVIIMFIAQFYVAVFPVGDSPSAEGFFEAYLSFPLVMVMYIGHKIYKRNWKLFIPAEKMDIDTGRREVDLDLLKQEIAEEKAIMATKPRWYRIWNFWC

[3] = test system: T2, General amino-acid permease GAP1 (Saccharomyces cerevisiae), P19145 [A393C]; experiment: Induction of yeast Gap1 A393C mutant-mediated trehalose activation at 10 mM
T2 sequence (whole entry): T1 sequence (whole entry) with C382I, A393C

[4] = test system: T3, General amino-acid permease GAP1 (Saccharomyces cerevisiae), P19145 [A385C]; experiment: Induction of yeast Gap1 A385C mutant-mediated […] activation at 2 mM in presence of 10 mM MTSEA treated before compound addition
T3 sequence (whole entry): T1 sequence (whole entry) with C382I, A385C

[5] = test system: T4, General amino-acid permease GAP1 (Saccharomyces cerevisiae), P19145 [A403C]; experiment: Induction of yeast Gap1 A403C mutant-mediated trehalose activation at 10 mM
T4 sequence (whole entry): T1 sequence (whole entry) with C382I, A403C

NC(=O)NCCC[C@H](N)C(=O)O
Activity (Saccharomyces cerevisiae): inactive | inhibition [1]: Active | Activity [2]: inactive | Activity [3]: inactive | inhibition [4]: Active | Activity [5]: inactive
